PubChem BioAssay AID248 (DTP/NCI, 2004)
Values joined by “and” are separate entries in the source; they are usually repeats but may differ in a detail not shown here. Identical values can stand only once. Inconclusive results and toxic doses are left out. No stated cut-off is given here; in the data, active means T/C of 150% or more; inactive means T/C below 125%.

Tested on: L1210 leukemia ip in BDF1 mice, survival T/C
Test: NCI In Vivo Anticancer Drug Screen. Data for tumor model L1210 Leukemia (intraperitoneal) in B6D2F1 (BDF1) mice
Settings: endpoint: mean survival time, higher = longer survival
How it was run: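 Tumor was transplanted into mice, which were then dosed with test compound or vehicle alone. Survival was recorded for each group, and the treated figure was expressed relative to the control figure.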

[1] = dose: 100.0 mg/kg/injection, schedule: Q04DX002 (ip), vehicle: saline with Tween-80
[2] = dose: 100.0 mg/kg/injection, schedule: Q01DX009 (ip), vehicle: Klucel (hydroxypropylcellulose) (HPC)
[3] = dose: 200.0 mg/kg/injection, schedule: Q01DX009 (ip), vehicle: Klucel (hydroxypropylcellulose) (HPC)
[4] = dose: 400.0 mg/kg/injection, schedule: Q01DX009 (ip), vehicle: Klucel (hydroxypropylcellulose) (HPC)
[5] = dose: 100.0 mg/kg/injection, schedule: Q04DX003 (ip), vehicle: saline with Tween-80
[6] = dose: 200.0 mg/kg/injection, schedule: Q04DX003 (ip), vehicle: saline with Tween-80
[7] = dose: 400.0 mg/kg/injection, schedule: Q04DX003 (ip), vehicle: saline with Tween-80
[8] = dose: 50.0 mg/kg/injection, schedule: Q01DX009 (ip), vehicle: Klucel (hydroxypropylcellulose) (HPC)
[9] = dose: 200.0 mg/kg/injection, schedule: Q01DX001 (ip), vehicle: saline with Tween-80
[10] = dose: 100.0 mg/kg/injection, schedule: Q01DX001 (ip), vehicle: Klucel (hydroxypropylcellulose) (HPC)
[11] = dose: 200.0 mg/kg/injection, schedule: Q01DX001 (ip), vehicle: Klucel (hydroxypropylcellulose) (HPC)
[12] = dose: 400.0 mg/kg/injection, schedule: Q01DX001 (ip), vehicle: Klucel (hydroxypropylcellulose) (HPC)
[13] = dose: 100.0 mg/kg/injection, schedule: Q04DX003 (ip), vehicle: Klucel (hydroxypropylcellulose) (HPC)
[14] = dose: 200.0 mg/kg/injection, schedule: Q04DX003 (ip), vehicle: Klucel (hydroxypropylcellulose) (HPC)
[15] = dose: 400.0 mg/kg/injection, schedule: Q04DX003 (ip), vehicle: Klucel (hydroxypropylcellulose) (HPC)

Measured: T/C

CN1C(=O)C2(c3ccccc31)C1CC3C(CO1)C1C2C3(CO)C[N+]1(C)C (stereo not given)
inactive: dose: 100.0 mg/kg/injection, schedule: Q01DX001 (ip), vehicle: saline 97 % of control | dose: 200.0 mg/kg/injection, schedule: Q01DX001 (ip), vehicle: saline 102 % of control

C#CP(CCCC)CCCC
inactive: dose: 25.0 mg/kg/injection, schedule: Q04DX002 (ip), vehicle: saline with Tween-80 97 % of control | dose: 50.0 mg/kg/injection, schedule: Q04DX002 (ip), vehicle: saline with Tween-80 91 % of control | [1] 95 % of control and 102 % of control

O=C(O)C1CCCCC1C(=O)NCc1ccco1 (stereo not given)
inactive: [2] 95 % of control | [3] 96 % of control | [4] 88 % of control

O=C(O)COc1ccc(C(=O)c2cc(Br)ccc2OCC(=O)O)cc1
inactive: dose: 100.0 mg/kg/injection, schedule: Q01DX001 (ip), vehicle: carboxymethylcellulose (CMC) 105 % of control | dose: 200.0 mg/kg/injection, schedule: Q01DX001 (ip), vehicle: carboxymethylcellulose (CMC) 98 % of control | dose: 400.0 mg/kg/injection, schedule: Q01DX001 (ip), vehicle: carboxymethylcellulose (CMC) 103 % of control

Cc1cccc(Nc2n[nH]c(=S)s2)c1
inactive: [2] 93 % of control | [3] 98 % of control | [4] 87 % of control

ClC(Cl)c1ccccc1
inactive: [5] 98 % of control | [6] 95 % of control | [7] 87 % of control

CCOC(=O)c1c2c(=O)n(C)c(=O)n(C)c2nc2c1c(=O)n(C)c(=O)n2C
inactive: [8] 93 % of control | [2] 93 % of control | [3] 86 % of control

C1=CC2C=CC1C2
inactive: dose: 100.0 mg/kg/injection, schedule: Q01DX009 (ip), vehicle: saline with Tween-80 97 % of control | [5] 89 % of control | dose: 200.0 mg/kg/injection, schedule: Q01DX009 (ip), vehicle: saline with Tween-80 92 % of control | [6] 92 % of control | dose: 400.0 mg/kg/injection, schedule: Q01DX009 (ip), vehicle: saline with Tween-80 89 % of control | [7] 89 % of control

CCC1(O)C(=O)OCc2c1c(Br)c(-c1ccccc1)n(C)c2=O (stereo not given)
inactive: dose: 25.0 mg/kg/injection, schedule: Q01DX001 (ip), vehicle: saline with Tween-80 110 % of control | dose: 50.0 mg/kg/injection, schedule: Q01DX001 (ip), vehicle: saline with Tween-80 102 % of control | [9] 121 % of control

COc1cc2cc3c4ccccc4cc[n+]3c(C)c2cc1OC (tested in a mixture with another compound)
inactive: dose: 2.5 mg/kg/injection, schedule: Q01DX009 (ip), vehicle: saline 102 % of control | dose: 5.0 mg/kg/injection, schedule: Q01DX009 (ip), vehicle: saline 110 % of control | dose: 10.0 mg/kg/injection, schedule: Q01DX009 (ip), vehicle: saline 115 % of control | dose: 20.0 mg/kg/injection, schedule: Q01DX009 (ip), vehicle: saline 121 % of control | dose: 40.0 mg/kg/injection, schedule: Q01DX009 (ip), vehicle: saline 118 % of control

COc1ccccc1-n1c(=O)c(N=Nc2ccc(Br)cc2)c(O)n(-c2ccccc2C)c1=S
inactive: [10] 109 % of control | [11] 98 % of control | [12] 98 % of control

CC(CC(c1ccccc1)c1ccccc1)[N+](C)(C)C (stereo not given)
inactive: dose: 5.0 mg/kg/injection, schedule: Q01DX001 (ip), vehicle: carboxymethylcellulose (CMC) 104 % of control | dose: 10.0 mg/kg/injection, schedule: Q01DX001 (ip), vehicle: carboxymethylcellulose (CMC) 101 % of control | dose: 20.0 mg/kg/injection, schedule: Q01DX001 (ip), vehicle: carboxymethylcellulose (CMC) 95 % of control | dose: 40.0 mg/kg/injection, schedule: Q01DX001 (ip), vehicle: carboxymethylcellulose (CMC) 93 % of control | dose: 80.0 mg/kg/injection, schedule: Q01DX001 (ip), vehicle: carboxymethylcellulose (CMC) 98 % of control

Nc1nc(=S)[nH]c2nsnc12
inactive: [5] 98 % of control | [6] 96 % of control | [7] 103 % of control

c1ccc2c(c1)CCc1ccccc1C2NC1=NCCO1
inactive: dose: 12.5 mg/kg/injection, schedule: Q01DX009 (ip), vehicle: saline with Tween-80 94 % of control | dose: 12.5 mg/kg/injection, schedule: Q04DX003 (ip), vehicle: saline with Tween-80 97 % of control | dose: 25.0 mg/kg/injection, schedule: Q01DX009 (ip), vehicle: saline with Tween-80 89 % of control | dose: 25.0 mg/kg/injection, schedule: Q04DX003 (ip), vehicle: saline with Tween-80 100 % of control | dose: 50.0 mg/kg/injection, schedule: Q01DX009 (ip), vehicle: saline with Tween-80 93 % of control | dose: 50.0 mg/kg/injection, schedule: Q04DX003 (ip), vehicle: saline with Tween-80 93 % of control

CC(C)(C)C(=O)[CH-]C(=O)C(C)(C)C.CC(C)(C)C(=O)[CH-]C(=O)C(C)(C)C.CC(C)(C)C(=O)[CH-]C(=O)C(C)(C)C.CS(C)=O.[Er+3]
inactive: [10] 98 % of control | [13] 103 % of control | [11] 101 % of control | [14] 98 % of control | [12] 96 % of control | [15] 103 % of control

O=C(Nc1cccc(Cl)c1)Nc1cccc(C(F)(F)F)c1
inactive: dose: 15.0 mg/kg/injection, schedule: Q01DX015 (ip), vehicle: carboxymethylcellulose (CMC) 103 % of control | dose: 30.0 mg/kg/injection, schedule: Q01DX015 (ip), vehicle: carboxymethylcellulose (CMC) 103 % of control | dose: 60.0 mg/kg/injection, schedule: Q01DX015 (ip), vehicle: carboxymethylcellulose (CMC) 100 % of control | dose: 120.0 mg/kg/injection, schedule: Q01DX015 (ip), vehicle: carboxymethylcellulose (CMC) 103 % of control

CCCCCCCCCCCCCCCC(=O)ONC(N)=O
inactive: dose: 100.0 mg/kg/injection, schedule: Q01DX001 (ip), vehicle: saline with Tween-80 100 % of control | [9] 96 % of control | dose: 400.0 mg/kg/injection, schedule: Q01DX001 (ip), vehicle: saline with Tween-80 91 % of control

Sc1ccccc1Cl
inactive: dose: 12.5 mg/kg/injection, schedule: Q01DX009 (ip), vehicle: Klucel (hydroxypropylcellulose) (HPC) 97 % of control | dose: 25.0 mg/kg/injection, schedule: Q01DX009 (ip), vehicle: Klucel (hydroxypropylcellulose) (HPC) 95 % of control | dose: 25.0 mg/kg/injection, schedule: Q04DX003 (ip), vehicle: Klucel (hydroxypropylcellulose) (HPC) 103 % of control | [8] 97 % of control | dose: 50.0 mg/kg/injection, schedule: Q04DX003 (ip), vehicle: Klucel (hydroxypropylcellulose) (HPC) 103 % of control | [13] 102 % of control

C1O[C@@H]1[C@H]1CO1
inactive: dose: 9.5 mg/kg/injection, schedule: Q01DX001 (ip), vehicle: saline 100 % of control | dose: 19.0 mg/kg/injection, schedule: Q01DX001 (ip), vehicle: saline 97 % of control | dose: 38.0 mg/kg/injection, schedule: Q01DX001 (ip), vehicle: saline 101 % of control

CCCC(C(=O)O)N(C)Cc1ccccc1 (stereo not given)
inactive: dose: 100.0 mg/kg/injection, schedule: Q01DX009 (ip), vehicle: acetone 92 % of control | dose: 200.0 mg/kg/injection, schedule: Q01DX009 (ip), vehicle: acetone 101 % of control | dose: 400.0 mg/kg/injection, schedule: Q01DX009 (ip), vehicle: acetone 97 % of control

c1ccc(P(CCP(CCP(c2ccccc2)c2ccccc2)c2ccccc2)CCP(c2ccccc2)c2ccccc2)cc1 (stereo not given)
inactive: [1] 90 % of control | dose: 100.0 mg/kg/injection, schedule: Q04DX002 (ip), vehicle: saline 101 % of control | [13] 95 % of control and 101 % of control | dose: 200.0 mg/kg/injection, schedule: Q04DX002 (ip), vehicle: saline with Tween-80 96 % of control | dose: 200.0 mg/kg/injection, schedule: Q04DX002 (ip), vehicle: saline 96 % of control | [14] 96 % of control and 102 % of control | dose: 400.0 mg/kg/injection, schedule: Q04DX002 (ip), vehicle: saline with Tween-80 93 % of control | dose: 400.0 mg/kg/injection, schedule: Q04DX002 (ip), vehicle: saline 101 % of control | [15] 93 % of control
